{
  "source": "paper PMC10044449",
  "about": "(Xenobiotica; the fate of foreign compounds in biological …, 2022)",
  "key": {"[1]": {"assay": "Liver microsomal metabolic stability", "type": "in vitro ADME, mouse"}, "[2]": {"assay": "Liver microsomal metabolic stability", "type": "in vitro ADME, rat"}, "[3]": {"assay": "Plasma protein binding", "type": "in vitro ADME", "details": "both, human, pH 7.4, Mean fu (fraction unbound), 37 °C"}, "[4]": {"assay": "Plasma protein binding", "type": "in vitro ADME", "details": "male, CD-1, mouse, pH 7.4, Mean fu (fraction unbound), 37 °C"}, "[5]": {"assay": "Plasma protein binding", "type": "in vitro ADME", "details": "rat plasma"}, "[6]": {"assay": "Liver microsomal binding", "type": "in vitro ADME", "details": "human, liver microsomes, pH 7.4"}, "[7]": {"assay": "Liver microsomal binding", "type": "in vitro ADME", "details": "ICR/CD-1, mouse, liver microsomes, pH 7.4"}, "[8]": {"assay": "Liver microsomal binding", "type": "in vitro ADME", "details": "Sprague Dawley, rat, liver microsomes, pH 7.4"}, "[9]": {"assay": "Prediction of in vivo CLH from in vitro CLint", "type": "in vitro ADME"}, "[10]": {"assay": "Prediction of in vivo CLH from in vitro CLint", "type": "in vitro ADME, mouse", "details": "for Predicted in vivo CLH: mouse"}, "[11]": {"assay": "Prediction of in vivo CLH from in vitro CLint", "type": "in vitro ADME, rat", "details": "for Predicted in vivo CLH: rat"}, "[12]": {"assay": "UHPLC/MS metabolite characterisation, liver microsome incubations", "type": "in vitro ADME", "details": "15 minute human microsome incubation"}, "[13]": {"assay": "UHPLC/MS metabolite characterisation, liver microsome incubations", "type": "in vitro ADME", "details": "5 minute mouse liver microsome incubation"}, "[14]": {"assay": "UHPLC/MS metabolite characterisation, liver microsome incubations", "type": "in vitro ADME", "details": "5 minute rat liver microsome incubation"}, "[15]": {"tested_on": "human hepatocytes", "assay": "UHPLC/MS metabolite characterisation, hepatocyte incubations", "type": "in vitro ADME", "details": "120 minute human hepatocyte incubation"}, "[16]": {"assay": "Mouse pharmacokinetic study", "type": "in vivo, Swiss albino mice", "details": "mice; for AUC(0-t): AUClast"}, "[17]": {"assay": "Efficacy in a mouse model", "type": "in vivo", "details": "corresponds to ca. 0.4 mg/kg in mice"}, "[18]": {"tested_on": "Escherichia coli GUS", "details": "ref Pellock et al. 2018; cited from earlier work"}, "[19]": {"details": "mice received ca. 0.4 mg/kg; ref Bhatt et al. 2020; cited from earlier work"}, "[20]": {"tested_on": "microbial versus mammalian β-glucuronidases", "details": "ref Pellock et al. 2018; cited from earlier work"}, "[21]": {"assay": "Hepatocyte metabolic stability", "details": "human, hepatocytes"}, "[22]": {"assay": "Hepatocyte metabolic stability", "details": "ICR/CD-1, mouse, hepatocytes"}, "[23]": {"assay": "Hepatocyte metabolic stability", "details": "Sprague Dawley, rat, hepatocytes"}, "[24]": {"assay": "Caco-2 bidirectional permeability", "details": "human, Caco-2, pH 7.4"}, "[25]": {"tested_on": "Caco-2 cells", "assay": "Caco-2 bidirectional permeability", "details": "Caco-2, without inhibitor mix"}, "[26]": {"assay": "Liver microsomal metabolic stability"}, "[27]": {"details": "ICR/CD-1, mouse, liver microsomes, pH 7.4"}, "[28]": {"details": "Sprague Dawley, rat, liver microsomes, pH 7.4"}},
  "note": "Several values for one entry are separate records, joined by “and”; a condition that tells them apart may be missing. Equal entries are not always repeated.",
  "data": [
    {"smiles": "C1CCc2c(c(N3CCOCC3)nc3sc4c(N5CCNCC5)nnnc4c23)C1", "note": "[UNC10201652, 4-(8-(piperazin-1-yl)-1,2,3,4-tetrahydro-[1,2,3]triazino[4′,5′:4,5]thieno[2,3-c]isoquinolin-5-yl)morpholine]", "values": [
      {"measurement": "half-life at 1 μM", "setting": "[1]; [27]", "result": 12, "unit": "min"},
      {"measurement": "microsomal CLint at 1 μM", "setting": "[1]; [27]", "result": 115, "unit": "µL/min/mg"},
      {"measurement": "Stability in control incubation in the absence of NADPH", "setting": "[1]; mouse liver microsomes, without NADPH, 45 min", "result": "stable"},
      {"measurement": "half-life at 1 μM", "setting": "[2]; [28]", "result": 7.14, "unit": "min"},
      {"measurement": "microsomal CLint at 1 μM", "setting": "[2]; [28]", "result": 194, "unit": "µL/min/mg"},
      {"measurement": "Stability in control incubation in the absence of NADPH", "setting": "[2]; rat liver microsomes, without NADPH, 45 min", "result": "stable"},
      {"measurement": "fraction unbound at 4 h, 2 μM", "setting": "[3]", "result": 0.0548},
      {"measurement": "fraction unbound at 4 h, 2 μM", "setting": "[4]", "result": 0.0648},
      {"measurement": "Extent of plasma protein binding", "setting": "[5]", "result": 89, "unit": "%"},
      {"measurement": "fraction unbound at 4 h, 2 μM", "setting": "[6]", "result": 0.642},
      {"measurement": "fraction unbound at 4 h, 2 μM", "setting": "[7]", "result": 0.453},
      {"measurement": "fraction unbound at 4 h, 2 μM", "setting": "[8]", "result": 0.618},
      {"measurement": "Predicted CLH as % of hepatic blood flow", "setting": "[9]; human", "result": "approximately 22 % of hepatic blood flow"},
      {"measurement": "Predicted in vivo CLH", "setting": "[9]; human, scaled from hepatocyte CLint", "result": 4.65, "unit": "mL/min/kg"},
      {"measurement": "Predicted in vivo CLH", "setting": "[9]; human, scaled from microsomal CLint", "result": 3.51, "unit": "mL/min/kg"},
      {"measurement": "Predicted CLH in human", "setting": "[9]; overall figure from microsomal and hepatocyte data", "result": 4, "unit": "mL/min/kg"},
      {"measurement": "Scaled hepatocyte CLint as % of hepatic blood flow", "setting": "[10]; mouse hepatocytes", "result": "> 60 % of hepatic blood flow"},
      {"measurement": "Predicted in vivo CLH", "setting": "[10]; scaled from hepatocyte CLint", "result": 75.9, "unit": "mL/min/kg"},
      {"measurement": "Predicted in vivo CLH", "setting": "[10]; scaled from microsomal CLint", "result": 42.1, "unit": "mL/min/kg"},
      {"measurement": "Scaled hepatocyte CLint as % of hepatic blood flow", "setting": "[11]; rat hepatocytes", "result": "> 60 % of hepatic blood flow"},
      {"measurement": "Predicted in vivo CLH", "setting": "[11]; scaled from hepatocyte CLint", "result": 59.8, "unit": "mL/min/kg"},
      {"measurement": "Predicted in vivo CLH", "setting": "[11]; scaled from microsomal CLint", "result": 43.5, "unit": "mL/min/kg"},
      {"measurement": "Area percentage in sample (% of total drug-related material by MS area)", "setting": "[12]", "result": "ca. 82%"},
      {"measurement": "Area percentage in sample (% of total drug-related material by MS area)", "setting": "[13]", "result": "ca. 86%"},
      {"measurement": "Area percentage in sample (% of total drug-related material by MS area)", "setting": "[14]", "result": "ca. 92%"},
      {"measurement": "Area percentage in sample (% of total drug-related material by MS area)", "setting": "[15]", "result": "ca. 48%"},
      {"measurement": "AUC(0-inf)", "setting": "[16]; male, Swiss albino, mouse, plasma, iv, 3 mg/kg, AUCINF, IV 3 mg/kg", "result": 154, "unit": "ng·h/mL"},
      {"measurement": "AUC(0-t)", "setting": "[16]; male, Swiss albino, mouse, plasma, iv, 3 mg/kg, IV 3 mg/kg", "result": 137, "unit": "ng·h/mL"},
      {"measurement": "Vd", "setting": "[16]; male, Swiss albino, mouse, plasma, iv, 3 mg/kg, Vss, IV 3 mg/kg", "result": 16.7, "unit": "L/kg"},
      {"measurement": "AUC(0-t)", "setting": "[16]; male, Swiss albino, mouse, plasma, po, 3 mg/kg, PO 3 mg/kg", "result": "~20", "unit": "ng·h/mL"},
      {"measurement": "Cmax", "setting": "[16]; male, Swiss albino, mouse, plasma, po, 3 mg/kg, Cmax, PO 3 mg/kg", "result": 15.2, "unit": "ng/mL"},
      {"measurement": "Tmax", "setting": "[16]; male, Swiss albino, mouse, plasma, po, 3 mg/kg, Tmax, PO 3 mg/kg", "result": 15, "unit": "min"},
      {"measurement": "Tolerability / clinical signs", "setting": "[16]; 3 mg/kg IV and PO, with and without ABT, up to 24 h post dose", "result": "no clinical signs were observed"},
      {"measurement": "Plasma concentration at the 24 h time point", "setting": "[16]; IV 3 mg/kg, 24 h", "result": "not detectable"},
      {"measurement": "Decrease in plasma clearance after ABT", "setting": "[16]; IV 3 mg/kg, ABT versus no ABT", "result": "ca. 2.5 fold"},
      {"measurement": "Increase in Vss after ABT", "setting": "[16]; IV 3 mg/kg, ABT versus no ABT", "result": "ca. 2 fold"},
      {"measurement": "Increase in plasma half-life after ABT", "setting": "[16]; IV 3 mg/kg, ABT versus no ABT", "result": "ca. 6 fold"},
      {"measurement": "CL (plasma clearance)", "setting": "[16]; IV 3 mg/kg, 3 mg/kg", "result": 325.0, "unit": "mL/min/kg"},
      {"measurement": "Vss", "setting": "[16]; IV 3 mg/kg, 3 mg/kg", "result": 16.7, "unit": "L/kg"},
      {"measurement": "Time of Cmax post dose", "setting": "[16]; PO 3 mg/kg", "result": 15, "unit": "min"},
      {"measurement": "F (oral bioavailability, from AUClast)", "setting": "[16]; PO 3 mg/kg + ABT 50 mg/kg 2 h prior", "result": 184, "unit": "%"},
      {"measurement": "Increase in plasma Cmax after ABT", "setting": "[16]; PO 3 mg/kg, ABT versus no ABT", "result": "greater than 10 fold"},
      {"measurement": "F (oral bioavailability, from AUClast)", "setting": "[16]; PO 3 mg/kg, 3 mg/kg", "result": "15% and 15^c %"},
      {"measurement": "Local gut concentration", "setting": "[17]", "result": "approximately 90 μM"},
      {"measurement": "IC50", "setting": "[18]", "result": 117, "unit": "nM"},
      {"measurement": "Efficacy in a mouse model", "setting": "[19]", "result": "good efficacy"},
      {"measurement": "Specificity microbial versus mammalian β-glucuronidases", "setting": "[20]", "result": "highly specific inhibitor"},
      {"measurement": "half-life at 1 μM", "setting": "[21]", "result": 66.4, "unit": "min"},
      {"measurement": "hepatocyte CLint at 1 μM", "setting": "[21]", "result": 20.9, "unit": "µL/min/1e6 cells"},
      {"measurement": "half-life at 1 μM", "setting": "[22]", "result": 11.9, "unit": "min"},
      {"measurement": "hepatocyte CLint at 1 μM", "setting": "[22]", "result": 116, "unit": "µL/min/1e6 cells"},
      {"measurement": "half-life at 1 μM", "setting": "[23]", "result": 9.89, "unit": "min"},
      {"measurement": "hepatocyte CLint at 1 μM", "setting": "[23]", "result": 140, "unit": "µL/min/1e6 cells"},
      {"measurement": "efflux ratio at 120 min, 10 μM", "setting": "[24]", "result": 2.7},
      {"measurement": "Mean A-B Papp", "setting": "[25]; 120 min, pH 7.4", "result": "5.88 cm/s (×10^−6)"},
      {"measurement": "Mean B-A Papp", "setting": "[25]; 120 min, pH 7.4", "result": "15.9 cm/s (×10^−6)"},
      {"measurement": "Stability in control incubation in the absence of NADPH", "setting": "[26]; human liver microsomes, without NADPH, 45 min", "result": "stable"},
      {"measurement": "half-life at 1 μM", "setting": "[26]; human, microsomes, pH 7.4", "result": 28.8, "unit": "min"},
      {"measurement": "microsomal CLint at 1 μM", "setting": "[26]; human, microsomes, pH 7.4", "result": 48.1, "unit": "µL/min/mg"}
    ]},
    {"smiles": "COc1ccc2c(c1)[C@]13CCCC[C@@H]1[C@H](C2)N(C)CC3", "note": "[dextromethorphan, reference compound]", "values": [
      {"measurement": "microsomal CLint at 1 μM", "setting": "[26]; human, microsomes, pH 7.4", "result": 44.8, "unit": "µL/min/mg"}
    ]},
    {"smiles": "C[C@]12CC[C@@H]3c4ccc(OS(=O)(=O)O)cc4CC[C@H]3[C@@H]1CCC2=O", "note": "[oestrone 3-sulfate, reference compound]", "values": [
      {"measurement": "Efflux ratio", "setting": "[25]", "result": 105}
    ]}
  ]
}
